Measurements published in patent publication USRE43712E1, “Methods for assaying for antidepressant therapy markers” (The Board of Trustees of the Uniersity of Illinois, priority 2000, dated 2012).
Marks after values point to notes of the source that are not given here.

Experiments:
Assay type in all cases: cell-based
Gsα [1] = assay: Sequential detergent extraction (Triton X-100 / Triton X-114) of Gsα from C6-2B glioma membranes; details: C6-2B cells, 10 μM, 3 days; mean ± SEM of 4-5 experiments
Protocol: (§1) C6-2B cells (between passages 20 and 40) were grown in 175-cm^2 flasks in Dulbecco's modified Eagle medium, 4.5 g of glucose/L, 10% bovine serum, in a 10% CO2 atmosphere, at 37° C. for 3 days after splitting. […] Male Sprague-Dawley rats weighing 150-200 g were fed ad libitum and maintained in a 12-h light/dark cycle. […] 36:803-838, 1989]. […] Rat cerebral cortex membranes were prepared according to the method of Rasenick et al. [Nature, 294:560-562; 1981].
Membrane proteins were extracted sequentially from C6-2B or rat synaptic membranes as described [Yan et al., J. Neurochem., 66:1489-1495; 1996]. These membranes were stirred on ice in HEPES (15 mM, pH 7.4) containing 1% Triton X-100 for 60 min followed by centrifugation at 100,000 g for 60 min at 4° C. The supernatant was reserved (Triton X-100 extract), and the resulting pellet was resuspended in Tris (15 mM, pH 7.4) containing 1.4% Triton X-114 and 150 mM NaCl. The solution was stirred for 60 min at 4° C. and centrifuged for 30 min at 100,000 g in the cold. The supernatant was saved (Triton X-114 extract). These supernatants and remaining pellet (remainder) were subjected to sodium dodecyl sulfate (SDS)-polyacrylamide gel electophoresis (PAGE) using 10% gels. All of the extraction buffers contained 1 mM PMSF and 1 mM EGTA.
(§2) Rat cortex membrane, C6-2B cell membranes, or Triton extracts of each membrane preparation were subjected to SDS-PAGE followed by electrotransfer to polyvinylidene difluoride (PVDF) membrane. The PVDF membrane was incubated with a phosphate-buffered saline/Tween 20 Buffer (140 mM NaCl, […]. 0.1% Tween 20, pH 7.4) and 3% bovine serum albumin. The membrane was then incubated with polyclonal rabbit antisera against the various G protein subunits [RM (Gsα) or 116 (Gi1, Gi2, Gi3α)] at a 1:25,000 (RM) or 1:5,000 (116) dilution (see below for source of antibodies). […] Immunoreactivity was detected with an enhanced chemiluminescence (ECL) western blot detection system (Amersham) in accord with the manufacturer's instructions. The developed autoradiographs were analyzed by densitometry.
A membrane-enriched fraction was prepared (see Example 1), and membrane proteins were extracted sequentially with Triton X-100 (Tx 100) and Triton X-114 (Tx 114). Equal amounts of these extracts were subjected to SDS-PAGE and transferred to PVDF membrane. The long and short forms of Gsα (GsαL and GsαS) from different fractions were identified by immunodetection.
Experiments were conducted according to the method set forth in Example 1 to assess the effects of different antidepressants on the detergent extraction of Gsα from C6-2B glioma cells.
The ratios of the percentage of Gsα extracted by the two detergents in the treatment versus control groups were compared and are set forth in Table 2 as percentage of control (i.e., each Triton X-100 extract was compared with the untreated Triton X-100 extract; the same was done for Triton X-114 extracts as well as the remainder).

Gsα [2] = assay: Content of G protein (Gsα) in C6-2B glioma membranes after antidepressant treatment, quantitative immunoblot
Protocol: as §1, §2
Purified recombinant GsαL (long form of Gsα; 1-10 ng/lane) was subjected to SDS-PAGE and transferred to PVDF membranes. The blots were incubated with antibody against Gsα (RM) and processed by ECL. Films were analyzed on a Molecular Dynamics densitometer, and the volume of each band was quantified and used to make a standard curve.
Experiments were conducted to determine whether Gsα is quantitatively altered by antidepressant therapy. For quantification of Gsα in C6-2B membrane, a standard curve was created using purified recombinant […]. Pure Gsα (1-20 ng/well) was subjected to SDS-PAGE and transferred to a PVDF membrane, Gsα was immunodetected by antisera against the as subunit of G protein.
To estimate the effect of antidepressant treatment on the amount of Gsα in C6-2B membranes, equal amounts (10 μg) of C6-2B glioma membrane proteins in control and chronically (3 days) antidepressant-treated groups were subjected to SDS-PAGE. Gsα was immunodetected by antisera against the αs subunit of G protein.

Goα = assay: Cellular localization of Goα in C6-2B cells, immunofluorescence confocal microscopy; details: 10 μM desipramine 3 days, approximately 500 cells, FIG. 9
Protocol: C6-2B cells (between passages 30 and 50) were plated onto coverslips and allowed to attach overnight in Dulbecco's modified Eagle's medium. 4.5 g/l glucose, 10% bovine serum, and 100 μg/ml penicillin and streptomycin at 37° C. in a humidified 10% CO2 atmosphere. […] Therefore, the latter treatment paradigm was used in these experiments because it was easier to maintain the cell cultures for 3 days. […] The culture media and drug were changed daily. […] After the treatment duration, the cells were incubated in drug-free media for 45 to 60 minutes before fixation.
After treatment, cells were washed once with phosphate-buffered saline (PBS, […] NaCl, 2.6 mM KCl, 5.4 mM NaαPO4 7H2O, pH 7.4) and fixed with ice-cold methanol for 10 minutes. Cells were then washed three times with PBS followed by 2 h of blocking in 5% normal goat serum/0.2% fish skin gelatin in PBS. Primary antibody was added for 1.5 h, Gsα/RM1 (PerkinElmer Life Sciences, Boston, Mass.) 1:50 and Goα (Santa Cruz Biotechnology, Santa Cruz, Calif.) 2 μg/ml, followed by three washes with PBS. Oregon Green-labeled secondary antibody (Molecular Probes, Eugene, Oreg.) was added at a concentration of 8 μg/ml for 1 h followed by three PBS washes. […] Approximately 2100 cells from control and desipramine-treated coverslips were counted by two investigators blind to the experimental conditions over the course of the five experiments. […]

Gsα [3] = assay: Cellular localization of Gsα in C6-2B cells, immunofluorescence laser scanning confocal microscopy
Gsα [4] = assay: Gsα in Triton-insoluble, caveolin-enriched versus Triton-soluble fraction of C6-2B cells (sucrose density gradient, immunoblot); details: chronic treatment, FIG. 3C
Protocol: as §2

[5] = C6-2B membranes, 10 μM drug for 3 days, mean ± SEM of 4-5 experiments

Structure (SMILES) | GsαL in Triton X-114 extract, % of corresponding value in control group (Gsα [1]) | GsαS in Remainder, % of corresponding value in control group (Gsα [1]) [%] | GsαS in Triton X-100 extract, % of corresponding value in control group (Gsα [1]) | GsαS in Triton X-114 extract, % of corresponding value in control group (Gsα [1]) | Quantity of G proteins in membrane, treated versus control (Gsα [2]; C6-2B cells, 10 μM, 3 days, p>0.05) | G protein amount, Total (Gsα [2]; [5]) | G protein amount, αsL (Gsα [2]; [5]) | G protein amount, αsS (Gsα [2]; [5]) | Change in the distribution of Goα (Goα) | Intense Gsα staining at the process tips (Gsα [3]; 3 μM for five days) | Number of cells lacking Gsα in the process tips versus control (Gsα [3]; acute treatment, one day, 10 μM) | Decrease of the amount of Gsα in the caveolin-enriched Triton-insoluble fraction, normalized to equal caveolin (Gsα [4]) [%]
CNCCC(Oc1ccc(C(F)(F)F)cc1)c1ccccc1 (stereo not drawn) [Fluoxetine, fluoxetine] | 84.4 ± 2.9^b % | 99.7 ± 3.1 | 215.9 ± 30.9^a % | 92.2 ± 1.3^b % | no significant differences | 12.49 ± 0.67 ng/10 ug of membrane protein | 7.23 ± 0.56 ng/10 ug of membrane protein | 5.65 ± 0.74 ng/10 ug of membrane protein |  |  |  | 
CNCCCN1c2ccccc2CCc2ccccc21 [Desipramine, desipramine] |  |  |  |  |  |  |  |  | little if any change | do not | not significantly different from the control | ~50
